Patent publication US7259254B2, “Mutants and assay system to identify USP/RXR ligands” (University of Kentucky Research Foundation, priority 2002, dated 2007)

Key:
P498W/P499W mutant USP = target: T1, P498W/P499W mutant USP (Drosophila melanogaster, UniProt P20153, P498W/P499W); test: Intrinsic tryptophan fluorescence ligand-binding assay, P498W/P499W mutant USP; details: excitation 290 nm, emission 340 nm
T1 construct: His tag; made in house; host or cells: bacteria (pET32EK vector)
Method: The homodimer-enriched fraction of bacterial recombinant His-dUSP fusion protein was purified by nickel resin selection, elution with imidazole, centrifugal concentration, and then gel permeation chromatography (Superdex 200) with procedures and chemical sources exactly as already described previously Jones et al. (2000) Insect Biochem. Mol. Biol. 30, 671-679. The homodimer-enriched fraction of the purified His-USP fusion protein was raised to 2 ml of NaCl and a final concentration of 0.5 μm. For a fluorescence-based ligand-binding assay based on intrinsic tryptophan fluorescence Jones et al. (2001) Insect Biochem. Mol. Biol. 32, 33-49; Jones et al (1998) Biochem. J. 335, 79-84; 79-84; Jones et al. (2000) Biochem. J. 346, 233-240; Jones et al (1997) Proc. Natl. Acad. Sci. USA 94, 13499-13503, ligand or ethanol carrier was added and the receptor preparation excited at 290 nm and monitored for emission at 340 nm, until the signal from the receptor had stabilized. Fluorescence was measured three times for each sample, with standard deviation typically smaller than the graphical plotted datum point. Each fluorescence experiment was replicated on three or more independent occasions, each time with similar results. […]

[1] = system: Core promoter reporter with DR1, DR4 or DR12 nuclear hormone response element in Sf9 cells; details: previous studies; cited from earlier work
C472A/H475L mutant dUSP = target: T2, C472A/H475L mutant dUSP (Drosophila melanogaster, UniProt P20153, C472A/H475L); test: Intrinsic tryptophan fluorescence ligand-binding assay, C472A/H475L mutant dUSP; details: 75 μm ligand; excitation 290 nm, emission 340 nm
T2 construct: His tag; made in house; host or cells: bacteria (pET32EK vector)
T2 sequence (P20153 whole entry C472A/H475L): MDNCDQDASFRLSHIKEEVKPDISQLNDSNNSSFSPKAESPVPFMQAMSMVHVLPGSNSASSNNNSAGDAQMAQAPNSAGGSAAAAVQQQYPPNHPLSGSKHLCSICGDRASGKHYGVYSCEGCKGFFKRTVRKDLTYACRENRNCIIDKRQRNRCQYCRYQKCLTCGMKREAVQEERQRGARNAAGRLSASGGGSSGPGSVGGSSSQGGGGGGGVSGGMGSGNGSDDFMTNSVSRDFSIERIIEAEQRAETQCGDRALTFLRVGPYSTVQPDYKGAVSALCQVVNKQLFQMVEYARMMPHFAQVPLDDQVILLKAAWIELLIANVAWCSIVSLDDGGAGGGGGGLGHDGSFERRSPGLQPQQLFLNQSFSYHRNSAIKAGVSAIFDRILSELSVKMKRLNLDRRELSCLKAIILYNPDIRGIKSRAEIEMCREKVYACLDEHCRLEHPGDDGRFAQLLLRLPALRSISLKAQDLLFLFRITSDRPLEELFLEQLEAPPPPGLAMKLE
Method: (§1) The homodimer-enriched fraction of bacterial recombinant His-dUSP fusion protein was purified by nickel resin selection, elution with imidazole, centrifugal concentration, and then gel permeation chromatography (Superdex 200) with procedures and chemical sources exactly as already described previously Jones et al. (2000) Insect Biochem. Mol. Biol. 30, 671-679. The homodimer-enriched fraction of the purified His-USP fusion protein was raised to 2 ml of NaCl and a final concentration of 0.5 μm. For a fluorescence-based ligand-binding assay based on intrinsic tryptophan fluorescence Jones et al. (2001) Insect Biochem. Mol. Biol. 32, 33-49; Jones et al (1998) Biochem. J. 335, 79-84; 79-84; Jones et al. (2000) Biochem. J. 346, 233-240; Jones et al (1997) Proc. Natl. Acad. Sci. USA 94, 13499-13503, ligand or ethanol carrier was added and the receptor preparation excited at 290 nm and monitored for emission at 340 nm, until the signal from the receptor had stabilized. Fluorescence was measured three times for each sample, with standard deviation typically smaller than the graphical plotted datum point. Each fluorescence experiment was replicated on three or more independent occasions, each time with similar results.
(§2) The ability of the wild-type dUSP and dominant negative, ligand-binding pocket mutant dUSP to bind methyl epoxyfarnesoate was tested.

[2] = target: T3, His-tagged wild-type dUSP (Drosophila melanogaster, UniProt P20153); test: Intrinsic tryptophan fluorescence ligand-binding assay, wild-type dUSP; details: excitation 290 nm, emission 340 nm, 0.5 μm receptor
T3 construct: His tag; made in house; host or cells: bacteria (pET32EK vector)
T3 sequence (P20153 1-508): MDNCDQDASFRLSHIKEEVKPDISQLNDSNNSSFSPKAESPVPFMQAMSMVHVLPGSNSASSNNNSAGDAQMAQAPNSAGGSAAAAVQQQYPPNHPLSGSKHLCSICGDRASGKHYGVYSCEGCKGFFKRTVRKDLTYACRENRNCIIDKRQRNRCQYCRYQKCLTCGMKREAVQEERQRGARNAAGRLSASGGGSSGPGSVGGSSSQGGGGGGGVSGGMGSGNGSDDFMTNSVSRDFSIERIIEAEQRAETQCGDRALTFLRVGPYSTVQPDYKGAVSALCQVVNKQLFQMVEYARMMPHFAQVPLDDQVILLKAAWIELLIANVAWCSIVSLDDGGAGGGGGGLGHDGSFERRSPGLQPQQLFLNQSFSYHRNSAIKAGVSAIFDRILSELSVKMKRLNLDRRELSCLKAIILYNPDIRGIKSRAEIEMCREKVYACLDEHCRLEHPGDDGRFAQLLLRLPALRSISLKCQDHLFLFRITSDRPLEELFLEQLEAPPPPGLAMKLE
Method: as §1, §2

[3] = system: Core promoter reporter with DR1, DR4 or DR12 nuclear hormone response element in Sf9 cells; test: Sf9 cell transfection assay: methyl epoxyfarnesoate activation of DR-enhancer/Core promoter luciferase reporter; assay type: cell-based, Spodoptera frugiperda; details: transfected Sf9 cells, 75 μm methyl epoxyfarnesoate
Method: Spodoptera frugiperda cell line, Sf9, was maintained and transfected as described previously Jones et al (1998) Biochem. J. 335, 79-84; Jones et al. (2000) Biochem. J. 346, 233-240. As an internal control to compare activities of different constructs, 0.3 μg of a constituitive heat-shock promoter-driven β-galactosidase gene was cotransfected. To study the role of USP in activation of the nuclear hormone receptor response element fused to core promoter in methyl epoxyfarnesoate-treated cells, cloned D. melangaster USP (dUSP) cDNA and its derivatives containing mutations in the ligand-binding pocket were cotransfected with the reporter and internal control plasmids. […] After 48 h of the treatment, the cells were harvested and the activity of the luciferase reporter was measured using a luciferase assay kit (Promega) in a multipurpose scintillation counter (Beckman, Fullerton, Calif.). β-Galactosidase activity was measured using chlorophenol red-[…] monosodium (CPRG; Roche Molecular Biochemicals) as a colorimetric substrate.
The sequences and characteristics of the core promoter ([…]) of the JHE gene were described by Jones et al. (2001) Insect Biochem. Mol. Biol. 32, 33-49; Jones et al (1998) Biochem. J. 335, 79-84; 79-84; Jones et al. (2000) Biochem. J. 346, 233-240. The core promoter responds to respond to methyl epoxyfarnesoate through a heterologous 5′ flanking direct repeat motif in cell transfection assay. This Core promoter reporter was cloned into KpnI/BglII sites of pGL3. An NheI site was then placed immediately 5′ to the KpnI site, and multiple direct repeat (DR) sequences were cloned into the NheI site by the following method. […] Upon annealing, the double stranded oligonucleotides would then have a CTAG overhang at each 5′ end. The annealed oligonucleotides were then ligated into concatamers, fractionated by native PAGE and the gel fractions corresponding to higher concatamer forms recovered and ligated into the NheI site. Specific DR sequences for the oligonucleotides were (upper strand) for DR1: 5′-CAAGGTCAAAGGTCAG-3′ (SEQ ID NO: 13), for DR4: 5′-CAAGGTCAAGAAAGGTCAG-3′ (SEQ ID NO: 14), for DR12: 5′-[…]-3′ (SEQ ID NO: 15; CTAG on 5′ ends not shown). The recovered YDRXCore constructs (X representing 1, 4 or 12 intervening bases; Y representing the number of tandem pairs of direct repeats) were verified by sequencing. The intervening sequences in the DR1 and DR4 motifs were randomly chosen, while the DR12 sequence used is found in the ecdysteroid-sensitive ng-1 and ng-2 genes that are expressed during metamorphosis of D. melanogaster, and can serve in vitro as a binding site for the various receptor dimers involving USP (ecdysteroid receptor (EcR)/USP heterodimer, USP/DHR38 heterodimer and USP/USP homodimer. […]

T1 sequence (P20153 whole entry P498W/P499W): as the sequence (P20153 whole entry C472A/H475L) above, with A472C, L475H, P498W, P499W counted along it

COC(=O)C=C(C)CCC=C(C)CCC1OC1(C)C (stereo not drawn) [methyl epoxyfarnesoate]
effect on receptor intrinsic fluorescence, P498W/P499W mutant USP (P498W/P499W mutant USP): sharply increasing in fluorescence before then decreasing | concentration of maximum effect (dose dependent) [1]: ~75 μm | effect on receptor intrinsic fluorescence (ligand binding), C472A/H475L mutant dUSP (C472A/H475L mutant dUSP): did not exhibit a significant response | effect on receptor intrinsic fluorescence (ligand binding), wild-type dUSP [2]: suppressed the fluorescence | effect on receptor intrinsic fluorescence (ligand binding), wild-type dUSP ([2]; listed as Methyl epoxyfarnesoate): suppression of receptor fluorescence | induction in promoter activity, four tandem copies of DR1 motif [3]: 2.5 fold | induction in promoter activity, four tandem copies of DR4 motif [3]: 3.5 fold | responsiveness of 1DR12mutCore (both DR12 half sites mutated) [3]: no greater than the background of a Core promoter with no enhancer | induction in promoter activity, 4DR12Core construct ([3]; four tandem DR12 motifs): 10 fold
